{"source": "patent US20180318238A1", "about": "“METHODS FOR REDUCING SEQUELAE OF INTRA-DIALYTIC HYPOTENSION” (priority 2015, published 2018)", "origin": "cited, not measured here", "conditions": "intravenous, dogs, all doses used; from WO 98/13036", "data": [{"substance": "S-ethylisothiouronium diethylphosphate", "values": [{"measurement": "Effect on arterial blood pressure", "result": "pronounced hypertensive effect at all doses used"}]}]}
